US11376307B2, “Compositions and methods of treating cancer with glycomimetic peptides” (SUSAVION BIOSCIENCES, INC., priority 2018, dated 2022)
Positions of bridges follow the written chain, without caps; N, C: chain ends. Chains are numbered I, II in the order given.

Columns and labels:
[1] = system: monocytes in the peritoneal cavity; experiment: Response of peritoneal monocytes in RAG−/− mice; type: in vivo; settings: mice lacking B and T cells
Method: To determine whether the target(s) for svL4 is located on lymphocytes, with subsequent cross-talk signaling to achieve activation of monocytes, an experiment was performed in which svL4 was injected into RAG^−/− mice, which lack activity of rag, the recombination activation gene. The ability to perform recombination to generate antigen-specific antibodies by V(D)J recombination is required for B and T cell precursors to produce functional antigen receptors on their surface, and without a functional rag gene these cells undergo apoptosis.

[2] = system: human monocyte-derived DCs co-cultured with CD3+ T cells; experiment: Allogenic mixed leukocyte reaction, IFN-γ release; type: cell-based
Method: FIGS. 5A-5B. Mixed leukocyte reaction. An allogenic mixture of 5×10^3 human monocyte-derived immature dendritic cells and 1×10^5 negatively selected CD3^+ T cells were incubated with various concentrations of sv6D. (FIG. 5A) Effect of concentration of sv6D in the medium on release of IFN-γ after 5 days of culture. […] (FIG. 5B) The time course of the appearance of IFN-γ in the medium of cultures incubated with 10 nM sv6D in (FIG. 5A) as compared with control incubations with PBS.
Binding of a peptide to CLEC10A expressed by DCs is expected to stimulate maturation and potential activation of T cells. This hypothesis was tested by an experiment in which human monocyte-derived DCs were co-cultured with T cells. Expression of CLEC10A (CD301) by the DCs was established by flow cytometry. sv6D was added to the medium at various concentrations, and IFN-γ production by T cells was assayed. […] Significant release of IFN-γ occurred after 3 days of incubation (FIG. 5B), a time required for DC maturation.

[3] = system: ID8 ovarian cancer cell line; experiment: Murine model of ovarian cancer, sv6D and anti-PD-1; type: in vivo, C57BL/6 mice
Method: FIGS. 9A-9B. Combination study of sv6D and anti-PD-1. (FIG. 9A) The design of the experiment and extension of survival of C57BL/6 female mice implanted with ovarian cancer cell line ID8 and treatments with anti-PD-1 and sv6D. Anti-PD-1 (rat anti-mouse, clone 29F.1A12) was administered intraperitoneally every other day, 200 μg protein per dose, between day 41 and 49 (white bars). sv6D was administered subcutaneously every other day at 0.1 nmol/g, starting on day 36, 51 or 87 (grey bars). […] (FIG. 9B) Kaplan-Meier survival curves of mice treated with anti-PD-1 and/or sv6D. […] For group 3, the Mantel-Cox log-rank test p=0.003 indicates the significance between treatment with the combination and antibody alone. Anti-PD-1, square; sv6D, dark triangle; anti-PD-1 followed by sv6D (Group 3 in FIG. 9A), light triangle; PBS, circle.
We tested whether sv6D would extend effectiveness of anti-PD-1. Five doses of anti-PD-1 (200 μg in PBS) were injected intraperitoneally on alternate days between days 41 and 49. sv6D was injected subcutaneously immediately after the treatment with anti-PD-1 and continued on alternate days to the end of the study (FIG. 9A, Group 3).

[4] = system: CD4 and CD8 T cells; experiment: In vitro challenge of T cells from mice injected with sv6D-MOG; type: cell-based, C57BL/6 mice; settings: mice injected weekly x2 with 0.1 nmol/g; 72 h incubation
Method: FIGS. 11A-11B. Activation of T cells by sv6D-antigen conjugate. IFN-γ (FIG. 11A) and IL-2 (FIG. 11B) production upon in vitro challenge of T cells after weekly injections of sv6D or sv6D-MOG (MOG=myelin oligodendrocyte glycoprotein35-55) into C57BL/6 mice. One week after the second injection, spleen and right inguinal lymph node tissue were combined and homogenized to allow isolation of CD4 and CD8 T cells, which were mixed with non-T cell antigen presenting cells, and incubated 72 h with PBS, sv6D or sv6D-MOG. PMA (phorbol 12-myristate 13-acetate) and I (ionomycin) were added as positive controls. Activation of CD8^+ T cells indicated cross-presentation of the antigen to the cytosol of dendritic cells, mediated by sv6D.
Whereas sv6D is not antigenic in the mouse (FIG. 10), it is important to determine whether the peptide gains access to the cytosol of DCs. To test whether sv6D could initiate a TH1 response and activate CD8^+ T cells, a fragment of the myelin oligodendrocyte glycoprotein (MOG35-55) was attached to the C-terminus of sv6D and injected into mice. One week after a second weekly injection of 0.1 nmol/g peptide, CD4^+ and CD8^+ T cells were challenged in vitro with the conjugate. […] A high level of IL-2 was also released by CD4^+ T cells (FIG. 11B). These observations are typical of a strong response to vaccination and stimulation of clonal T cell proliferation. […]

I: H-VQATQSNQHTPRGGGSKK-NH2 / II: H-VQATQSNQHTPRGGGSK / III: H-VQATQSNQHTPRGGGS / IV: H-VQATQSNQHTPRGGGS (amide I:17-IV:C, I:18-II:C, II:17-III:C) [svL4]
Response of peritoneal monocytes [1]: essentially the same as that in C57BL/6 mice

I: H-NQHTPRGGGSKK-NH2 / II: H-NQHTPRGGGSK / III: H-NQHTPRGGGS / IV: H-NQHTPRGGGS (amide I:11-IV:C, I:12-II:C, II:11-III:C) [sv6D]
Incubation time after which significant release of IFN-γ occurred ([2]; 10 nM sv6D): 3 days
Concentration giving maximal IFN-γ production / optimal cellular response ([2]; 5 days of culture): 10 nM
Ascites formation ([3]; Group 5: sv6D from day 87 after anti-PD-1): essentially complete suppression of ascites formation
Survival ([3]; Group 6: hiatus of one week after a week of sv6D): survived only slightly longer than animals treated with PBS
Survival ([3]; combination of anti-PD-1 with sv6D (Group 4)): maximal survival
Survival ([3]; single agent: anti-PD-1 200 μg i.p. x5 (Group 1), sv6D 0.1 nmol/g s.c. alternate days (Group 7)): maximal survival
Accumulation of ascites ([3]; sv6D alone vs. anti-PD-1): inhibited accumulation of ascites to a greater extent than anti-PD-1
IFN-γ release by CD4+ and CD8+ T cells on in vitro challenge [4]: did not induce IFN-γ release
